US20250346613A1, “BORIC ACID PROTEASOME INHIBITOR AND USE THEREOF” (ARTIVILA BIOPHARMA, priority 2022, published 2025)

What was measured:
[1] = Blood concentration measurement of orally-administrated mice; type: in vivo, C57BL/6JNifdc mice; settings: C57BL/6JNifdc, mouse, plasma, oral, 30 mg/kg; for concentration at 0.5 h: read-out: Average blood compound concentration (μM) 0.5 h; for concentration at 1 h: read-out: Average blood compound concentration (μM) 1.0 h; for concentration at 1.5 h: read-out: Average blood compound concentration (μM) 1.5 h; for concentration at 2 h: read-out: Average blood compound concentration (μM) 2.0 h
Description: The C57BL/6JNifdc mice used in this experiment were provided by Zhejiang Vital River Laboratory Animal Technology Co., Ltd. The compounds were dissolved in DMSO/Solutol/Saline (v/v/v=10/10/80) as a stock solution (3 mg/mL). The stock solution was administrated orally to 6 C57BL/6JNifdc mice at a dose of 30 mg/kg. Blood was collected from the orbital venous plexus at 0.5 h, 1 h, 1.5 h, and 2 h after oral administration.
Approximately 200 μL of blood samples were collected into EDTAK2 Blood Collection tubes and then immediately centrifuged at 10,000 rpm for 5 min. 66 μL of plasma supernatant was added with 198 μL of acetonitrile (Energy), the resulting mixture was shaken on a vortex for 5 min, and then immediately centrifuged at 13000 rpm for 8 min. 200 μL of supernatant was taken for blood compound concentration measurement.
The compound was accurately weighed and dissolved in acetonitrile to a concentration of 100 μg/mL. 50 μL of compound was pipetted and added to 4.95 mL of acetonitrile/water (v/v=3/1) solution to obtain 1000 ng/mL mother liquid. 650 μL of the mother liquid was taken and sequentially diluted with a solution of acetonitrile/water (v/v=3/1) in a 2-fold gradient to obtain standard samples with various concentrations of 500 ng/mL, 250 ng/mL, 125 ng/mL, 62.5 ng/mL, and 31.25 ng/mL.
Standard solutions with concentrations of 1000 ng/mL, 500 ng/mL, 250 ng/mL, 125 ng/mL, 62.5 ng/mL, and 31.25 ng/mL were measured by using LC-MS (LC-MS 2020+LC-2030 Plus, Shimadzu) SIM mode to obtain a calibration curve. The treated blood samples were measured by this method and then subjected to quantitative analysis by using the calibration curve to obtain compound concentration data of each treated blood sample.
The data were exported and the average blood compound concentration at each sampling time was calculated.
Blood compound concentration=compound concentration in treated blood sample×4/molecular weight of the compound. The average blood compound concentration is the average of the compound concentrations in the blood at each sampling time.

[2] = target: T1, β5c subunit of the 20S proteasome (Homo sapiens, UniProt P20618+P28074); experiment: Proteasome inhibitory activity, β5c subunit (Raji cells treated with compound, lysed, Suc-LLVY-AMC substrate); type: cell-based; settings: proteasome from Raji cells incubated with compound 4 h
T1 construct: The proteasome tested in the present disclosure was derived from Raji cells; endogenous in cells; host or cells: Raji cells
Outline: (§1)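 Raji cells were treated for 4 h at 37 °C with compound (from 1 μM, 3-fold, 8 concentrations), then lysed. Lysate activity was read 10 min at 37 °C with Ac-ANW-AMC (β5i) or Suc-LLVY-AMC (β5c) at 345/445 nm. Percent inhibition was relative to DMSO-treated lysate.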

[3] = target: T2, β5i subunit of the 20S proteasome (Homo sapiens, UniProt P20618+P28062); experiment: Proteasome inhibitory activity, β5i subunit (Raji cells treated with compound, lysed, Ac-ANW-AMC substrate); type: cell-based; settings: proteasome from Raji cells incubated with compound 4 h
T2 construct: The proteasome tested in the present disclosure was derived from Raji cells; endogenous in cells; host or cells: Raji cells
Outline: as §1

Cc1ccc(C[C@H](NC(=O)C(C)C(=O)NCc2ccc(Cl)cc2Cl)B(O)O)cc1 (stereo partly drawn) [Example 59, ((1R)-1-(3-((2,4-dichlorobenzyl)amino)-2-methyl-3-oxopropionamido)-2-(p-tolyl)ethyl)boric acid]
concentration at 0.5 h [1]: 23 µM | concentration at 1 h [1]: 20 µM | concentration at 1.5 h [1]: 22 µM | concentration at 2 h [1]: 16 µM | IC50 [2]: ≤ 50 nM | IC50 [3]: ≤ 50 nM

COc1cccc(CCNC(=O)C(C)C(=O)N[C@@H](Cc2coc3ccccc23)B(O)O)c1 (stereo partly drawn) [Example 63, ((1R)-2-(benzofuran-3-yl)-1-(3-((3-methoxyphenylethyl)amino)-2-methyl-3-oxopropionamido)ethyl)boric acid]
concentration at 0.5 h [1]: 23 µM | concentration at 1 h [1]: 24 µM | concentration at 1.5 h [1]: 15 µM | concentration at 2 h [1]: 16 µM | IC50 [2]: ≤ 50 nM | IC50 [3]: ≤ 50 nM
